# Measurements as given in patent US10023587B2, “Oxabicycloheptanes and oxabicycloheptenes, their preparation and use” (LIXTE BIOTECHNOLOGY, INC., priority 2007, dated 2018).
# “Also recorded” adds a separate entry of the source. Like-named read-outs stand apart in the source and are kept apart here.
# Legend:
# C. albicans = assay: Antifungal susceptibility testing (broth dilution), C. albicans; type: cell-based, Candida albicans; conditions: for MIC: Candida albicans, read-out: minimum inhibitory concentration (MIC)
# Protocol: (§1) Anti-fungal testing was completed with a common lot for compounds 100 and 102.
# (§2) A 10 mg portion of each powder was weighed out and added to 1 ml of sterile distilled water for compound 100 and DMSO for compound 102. The resulting concentration of […] was diluted to a working concentration of 640 μg/ml for each compound. All subsequent dilutions were also made using the respective diluents. Final testing concentrations ranged from 0.125-64 μg/ml.
# (§3) A total of 23 isolates were tested to include 3 Candida albicans, 3 Candida glabrata, 3 Cryptococcus neoformans, 3 Aspergillus fumigatus, 3 Rhizopus oryzae, 3, Fusarium solani, 3 Pseudallescheria boydii, and 2 […] rubrum. All isolates were clinical isolates submitted to the Fungus Testing Laboratory for evaluation. Antifungal susceptibility testing was accomplished according to the methods outlined in the National Committee for Clinical Laboratory Standards, M-27A2, Reference Method for Broth Dilution Antifungal Susceptibility Testing of Yeasts; Approved Standard, and M38-A “Reference Method for Broth Dilution Antifungal Susceptibility Testing of Conidium-Forming Filamentous Fungi; Approved Standard”. This includes testing in RPMI-1640 with glutamine and without bicarbonate, an inoculum size of 0.5-2.5×10^3 for yeasts or 1-5×10^4 for moulds, and incubation at 35° C. for 24 and 48 hours.
# K-562 cells = assay: CellTiter-Glo assay, K-562; type: cell-based; conditions: Homo sapiens, K562; K-562 Leukemia chronic myelo, 72 hr; read-out: IC50 (50% Inhibition of Proliferation)
# Protocol: (§4) MDA-MB-231, HT-29, NCI-H460, NCI-H522, NCI-H69, GXF-209, HepG2, OVAR-3, PANC-1, DU-145, LNCAP, HL-60, K-562, and MOLT-4 cell lines were either obtained from the American Type Culture Collection (ATCC; Manassas, Va.), or from the National Cancer Institute (NCI; Frederick, Md.). RPMI-1640 media, L-glutamine dipeptide (HyQ SG-200), and HEPES were obtained from Hyclone (Logan, Utah).
# (§5) All cell lines were routinely cultured twice weekly in RPMI-1640 medium supplemented with 2 mM L-glutamine dipeptide, 10 mM HEPES, and 10% FBS.
# (§6) The adherent cell lines MDA-MB-231, HT-29, NCI-H460, NCI-H522, GXF-209, HepG2, OVAR-3, PANC-1, DU-145, and LNCAP cells were each seeded into two 96-well plates at 2,500 cells per well in a total volume of 50 uL and incubated in a 37° C. humidified 5% CO2 cell culture incubator overnight. The suspension cell lines NCI-H69, HL-60, K-562, and MOLT-4 were each seeded into two 96-well plates at 10,000 cell per well in a total volume of 50 uL and incubated in a 37° C. humidified 5% CO2 incubator overnight.
# (§7) This was followed by making 2× stocks of the final concentrations required in RPMI-1640 medium. […]
# (§8) Briefly, plates were removed from the incubator and placed on the bench at room temperatures for 30 minutes. […] Luminescence was then recorded using the PerkinElmer Microbeta scintillation and luminescence counter (Trilux).
# MOLT-4 cells = assay: CellTiter-Glo assay, MOLT-4; type: cell-based; conditions: Homo sapiens; MOLT-4 acute lympho, 72 hr; read-out: IC50 (50% Inhibition of Proliferation)
# Protocol: as §4, §5, §6, §7, §8
# P. boydii = assay: Antifungal susceptibility testing (broth dilution), P. boydii; type: cell-based, Pseudallescheria boydii; conditions: for MIC: Scedosporium boydii, read-out: minimum inhibitory concentration (MIC)
# Protocol: as §1, §2, §3
# A. fumigatus = assay: Antifungal susceptibility testing (broth dilution), A. fumigatus; type: cell-based, Aspergillus fumigatus; conditions: for MIC: Aspergillus fumigatus, read-out: minimum inhibitory concentration (MIC)
# Protocol: as §1, §2, §3
# CP Control = assay: Antifungal susceptibility testing (broth dilution), CP Control; type: cell-based; conditions: read-out: minimum inhibitory concentration (MIC)
# Protocol: as §1, §2, §3
# GBM cell line U373 = assay: Inhibition of growth of GBM cell line U373 by single agents (cell counts); type: cell-based, human; conditions: for Inhibition of growth of cell line U373 (in words): single agent, 7 days
# From the text: From graphic plots of the glioblastoma multiforme GBM cell line U373 (available from the National Institute of Neurological Disorders and Stroke Molecular Pathogenesis Unit, Building 10, Room 5 D37, National Institutes of Health, 900 Rockville Pike, Bethesda, Md., 20892) as a function of exposure to different doses of drug for 7 days, the concentration of each compound that inhibited brain tumor cell proliferation by 50% (IC50) was estimated.
# To identify novel therapeutic targets for the treatment of glioblastoma multiforme (GBM), cantharidin analogues were evaluated for their ability to inhibit growth of glioblastoma multiforme cells. Specifically, GBM cell line U373 was used in evaluations.
# The total number of cells is counted in the triplicate cultures at each dose and in controls after 7 days and the average number of cells and the standard deviation is determined.
# The amount of inhibition of GBM cell growth is expressed as the proportion of the number of cells in the experimental dishes compared to the number of cells in control dishes containing only the drug vehicle and culture medium. The average percent of control is plotted and bracketed by one standard deviation calculated from the triplicate measurements.
# For all cell culture experiments, cells are allowed to grow in the presence or absence of different concentrations of drug or in the presence of the vehicle used to dissolve the drug, PBS for compound 100 and DMSO for compound 102. Cell counts are done in triplicate on day 3 and day 7 and inhibition of growth is expressed as a percentage of the number of cells present in the experimental well divided by the number of cells in a control well.
# [1] = Solubility (water, lipid); type: physicochemical
Structure (SMILES),"minimum inhibitory concentration (MIC) (C. albicans; isolate 07-3006, 24 Hours)","minimum inhibitory concentration (MIC) (C. albicans; isolate 07-3006, 48 Hours)","minimum inhibitory concentration (MIC) (C. albicans; isolate 07-3011, 24 Hours)","minimum inhibitory concentration (MIC) (C. albicans; isolate 07-3011, 48 Hours)",IC50 (K-562 cells),IC50 (MOLT-4 cells),"minimum inhibitory concentration (MIC) (P. boydii; isolate 07-1502, 24 Hours)","minimum inhibitory concentration (MIC) (P. boydii; isolate 07-1502, 48 Hours)","minimum inhibitory concentration (MIC) (P. boydii; isolate 07-1601, 24 Hours)","minimum inhibitory concentration (MIC) (P. boydii; isolate 07-1601, 48 Hours)","minimum inhibitory concentration (MIC) (A. fumigatus; isolate 06-4126, 24 Hours)","minimum inhibitory concentration (MIC) (A. fumigatus; isolate 06-4126, 48 Hours)","minimum inhibitory concentration (MIC) (A. fumigatus; isolate 07-2039, 24 Hours)","minimum inhibitory concentration (MIC) (A. fumigatus; isolate 07-2039, 48 Hours)",MIC (CP Control; 24 Hours),MIC (CP Control; 48 Hours),Inhibition of growth of cell line U373 (in words) (GBM cell line U373),further results
"CC(C)(C)OC(=O)N1CCN(C(=O)C2C(C(=O)O)[C@H]3CC[C@@H]2O3)CC1 (stereo in doubt) [Compound 102, 4-(3-Carboxy-7oxa-bicyclo[2.2.1]heptane-2-carbonyl)piperazine-1-carboxylic acid tert-butyl ester]",>64 µg/mL,>64 µg/mL,>64 µg/mL,>64 µg/mL,13.7 µM,5.6 µM,>64 µg/mL,>64 µg/mL,>64 µg/mL,>64 µg/mL,>64 µg/mL,>64 µg/mL,>64 µg/mL,>64 µg/mL,> 64 µg/mL,> 64 µg/mL,highly potent,"MIC (C. albicans; isolate 07-3012, 24 Hours): > 64 µg/mL; MIC (C. albicans; isolate 07-3012, 48 Hours): > 64 µg/mL; MIC (P. boydii; isolate 07-1333, 24 Hours): > 64 µg/mL; MIC (P. boydii; isolate 07-1333, 48 Hours): > 64 µg/mL; MIC (A. fumigatus; isolate 05-388, 24 Hours): > 64 µg/mL; MIC (A. fumigatus; isolate 05-388, 48 Hours): > 64 µg/mL; Lipid solubility (in words) [1]: lipid soluble"
"CN1CCN(C(=O)C2C(C(=O)O)[C@H]3CC[C@@H]2O3)CC1 (stereo partly drawn) [Compound 100, Endothall 4-Methylpiperazine Monoamide]",>64 µg/mL,>64 µg/mL,>64 µg/mL,>64 µg/mL,10.7 µM,5.7 µM,>64 µg/mL,>64 µg/mL,>64 µg/mL,>64 µg/mL,>64 µg/mL,>64 µg/mL,>64 µg/mL,>64 µg/mL,> 64 µg/mL,> 64 µg/mL,potent inhibitor of GBMs in vitro; also recorded: Increasing dosages demonstrate a greater inhibition of growth; also recorded: modest inhibition of growth,"MIC (C. albicans; 24 h): > 64 µg/mL; MIC (C. albicans; 48 h): > 64 µg/mL; MIC (P. boydii; 24 h): > 64 µg/mL; MIC (P. boydii; 48 h): > 64 µg/mL; MIC (A. fumigatus; 24 h): > 64 µg/mL; MIC (A. fumigatus; 48 h): > 64 µg/mL; Inhibitory value against U373, comparison of the two compounds (GBM cell line U373; 10 μM, seven days (FIG. 8)): identical inhibitory values; IC50 (GBM cell line U373; Homo sapiens, U373 MG, 168 h, U373, exposure for 7 days, estimated from graphic plots (FIG. 1), read-out: concentration that inhibited brain tumor cell proliferation by 50% (IC50)): 3 µM; Inhibition of growth of cell line U373 (in words) (GBM cell line U373; listed as compound 100): inhibitory activities at low micromolar concentrations; also recorded: dose dependent inhibition; Water solubility (in words) ([1]; own compounds): water soluble"
